Measured values from patent publication US7087766B2, “Reagents for the quantitation of active oxygen” (Daiichi Pure Chemicals Co., Ltd., priority 2000, dated 2006).
“Also recorded” adds a separate entry of the source.

Assays:
[1] = Reactivity with hydroxyl radical (Fenton system: hydrogen peroxide and ferrous perchlorate), fluorescence intensity; conditions: for changes in fluorescence intensity between before and after treatment, Hydroxyl radical: 10 μM probe, 100 mM sodium phosphate buffer pH 7.4, Iron(II) perchlorate (100 μM) and hydrogen peroxide (1 mM), 30 minutes, ex 490 nm/em 510 nm; for reactivity to hydroxyl radical (in words): condition a of Table 1
Description: (§1) The excitation spectrum and the fluorescence spectrum of the 10 μM ss-3F solution were measured using a fluorophotometer F4500 (manufactured by Hitachi, Ltd.). Slit width was 2.5 nm for both the excitation spectrum and the fluorescence spectrum, and the photomultiplier voltage was 950 V. Measurement was carried out at the excitation wavelength of 490 nm and the fluorescence wavelength of 510 nm unless otherwise specified.
Further, to investigate the reaction between ss-3F and hydroxyl radical, hydrogen peroxide was added to the 10 μM ss-3F solution to a final concentration of 1 mM, and then the mixture was added with ferrous perchlorate to a final concentration of 100 μM for each addition (5 times in total) to measure changes in fluorescence intensity with time (Fenton system).
(§2) The solutions described below were analyzed by HPLC. The absorbance at 460 nm was measured using XTerra™RP18 5 μm (4.6×250 mm) as a column and an aqueous solution of acetonitrile/0.1M NaHCO3=1/1 as an eluate with an elution rate of 1 ml/min. • (A) the 10 μM ss-3F solution • (B) a reaction solution prepared by adding EP-1 to the 10 μM ss-3F solution so as to give a final concentration of 5 mM and reacting at 37° C. for 8 hours • (C) a solution prepared by adding hydrogen peroxide to the 10 μM ss-3F solution so as to give a final concentration of 1 mM, and further adding ferrous perchlorate so as to give a final concentration of 500 μM, and then allowing to stand at room temperature for about 3 hours • (D) a 1 μM fluorescein solution
(§3) The compounds of the present invention, ss-1F, and ss-3F were tested. DCFH (2′,7′-dichlorodihydrofluorescein) was used as a control which was produced by hydrolyzing DCFH-DA (2′,7′-dichlorodihydrofluorescein diacetate; Molecular Probes, D-399) as a commercially available agent for detecting reactive oxygen species. DCFH-DA was hydrolyzed in accordance with the method by Hempel et al. (Stephen L. Hempel et al., Free Radical Biology & Medicine, 27, 146–159, 1999) under an alkali condition to obtain DCFH. […] The 10 μM DCFH solution was used for the test immediately after the preparation. […] Each of ss-1F, ss-3F, and DCFH was treated under conditions “a” to “f” for 30 minutes (2 hours and 30 minutes only for “f”) and changes in fluorescence intensity between before and after treatment were measured. The fluorescence intensity was measured under the same conditions as those in Example 4.

[2] = Reactivity with singlet oxygen (EP-1 naphthalene endoperoxide system), fluorescence intensity; conditions: for changes in fluorescence intensity between before and after treatment, Singlet oxygen: 10 μM probe, 100 mM sodium phosphate buffer pH 7.4, EP-1 (100 μM), 30 minutes
Description: as §1
Subsequently, in order to investigate the reaction between ss-3F and singlet oxygen, a solution of EP-1 (a singlet oxygen generation system, i.e., the naphthalene endoperoxide compound; Saito, I, .et al., J. Am. Chem. Soc., 107, pp. 6329–6334, 1985) in dimethylformamide (DMF) was added to the 10 μM ss-3F solution to final concentrations of 1 mM, 2 mM, and 5 mM, and changes in fluorescence intensity with time was measured (EP-1 system). The temperature of the solution at this time was at 37° C. The excitation spectrum and the fluorescence spectrum of the solution after the completion of the reaction were measured under the same conditions as described above. […] Also in FIG. 3, generation of fluorescence was observed, and it was verified that ss-3F generated fluorescence upon reaction with singlet oxygen.
as §2
(§4) A fluorescence spectrum of ss-3 obtained in Example 1 was measured under the same conditions as those in 1) of Example 4, except that the excitation wavelength was at 370 nm and the fluorescence wavelength was at 450 nm. The result obtained in the absence of EP-1 was shown in FIG. 7, and the result of fluorescence spectrum of the solution after the completion of the reaction with EP-1 was shown in FIG. 8.
as §3

[3] = Reactivity with superoxide (KO2), fluorescence intensity; conditions: 10 μM probe, 100 mM sodium phosphate buffer pH 7.4; KO2 (100 μM); 30 minutes
Description: as §1, §3

[4] = Reactivity with hydrogen peroxide, fluorescence intensity; conditions: for changes in fluorescence intensity between before and after treatment, Hydrogen peroxide: 10 μM probe, 100 mM sodium phosphate buffer pH 7.4, Hydrogen peroxide (1 mM), 30 minutes; for reaction with hydrogen peroxide per se (in words): result of Example 6
Description: as §1, §3

[5] = Reactivity with nitrogen monoxide (NOC13), fluorescence intensity; conditions: 10 μM probe, 100 mM sodium phosphate buffer pH 7.4; NOC13 (100 μM); 30 minutes
Description: as §1, §3

[6] = Autoxidation under a fluorescent lamp, fluorescence intensity; assay type: physicochemical; conditions: for changes in fluorescence intensity between before and after treatment, Autoxidation: 10 μM probe, 100 mM sodium phosphate buffer pH 7.4, just under a fluorescent lamp for 2 hours and 30 minutes; for autoxidation (in words): condition f of Table 1
Description: as §1, §3

horseradish peroxidase = assay: Specific detection of peroxidase activity (HRP/H2O2), fluorescence spectrum; assay type: biochemical; conditions: 10 μM probe, horseradish peroxidase 0.2 μM, hydrogen peroxide 0 to 5.0 μM, pH 7.4; fluorescence wavelength 515 nm
Description: A 100 mM phosphate buffer (pH 7.4) of horseradish peroxidase was added to the resulting solution of ss-1F or ss-3F to a final concentration of 0.2 μM, and then hydrogen peroxide was added to final concentrations of 0, 0.01, 0.05, 0.1, 0.5, 1.0, 2.0, and 5.0 μM, and the fluorescence spectrum was immediately measured. The fluorescence spectrum was measured under the same conditions as those in 1) of Example 4, except that the fluorescence wavelength was at 515 nm.

[7] = Excitation and fluorescence spectrum of the compound itself; assay type: physicochemical
Description: as §1, §4

Row | fluorescence of the compound per se ([7]; 10 μM in 100 mM sodium phosphate buffer pH 7.4, excitation 490 nm, fluorescence 510 nm) | fluorescence of the compound itself ([7]; absence of EP-1, excitation 370 nm, fluorescence 450 nm) | Structure (SMILES) | changes in fluorescence intensity between before and after treatment, Hydroxyl radical [1] | changes in fluorescence intensity with time on reaction with hydroxyl radical ([1]; 10 μM solution, hydrogen peroxide 1 mM, ferrous perchlorate 100 μM per addition (5 times)) | reactivity to hydroxyl radical (in words) [1] | changes in fluorescence intensity between before and after treatment, Singlet oxygen [2] | changes in fluorescence intensity with time on reaction with singlet oxygen ([2]; 10 μM solution, EP-1 1 mM, 2 mM, 5 mM, 37° C., ex 490 nm/em 510 nm) | changes in fluorescence intensity between before and after treatment, Superoxide [3] | changes in fluorescence intensity between before and after treatment, Hydrogen peroxide [4] | reaction with hydrogen peroxide per se (in words) [4] | changes in fluorescence intensity between before and after treatment, Nitrogen monoxide [5] | changes in fluorescence intensity between before and after treatment, Autoxidation [6] | autoxidation (in words) [6] | fluorescence intensity with HRP/H2O2 (horseradish peroxidase) | fluorescence after reaction with singlet oxygen ([2]; after completion of the reaction with EP-1, excitation 370 nm, fluorescence 450 nm)
1 | emits no fluorescence |  | Nc1ccc(Oc2ccc3c(-c4ccccc4C(=O)O)c4ccc(=O)cc-4oc3c2)cc1 [ss-3F] | 6.0 × 10^2 | increase in fluorescence intensity was observed at each time of the addition of ferrous perchlorate | high reactivity to hydroxyl radical | 8.7 | increase in fluorescence intensity was observed dependently on EP-1 concentrations as well as in time dependent manner | 5.6 | <1.0 | do not react with hydrogen peroxide | <1.0 | <1.0 | completely free from autoxidation; also recorded: no autoxidation | increase in fluorescence intensity in a concentration-dependent manner | 
2 |  | substantially non-fluorescent | Nc1ccc(Oc2ccc3ccc(=O)oc3c2)cc1 [ss-3] |  |  |  |  |  |  |  |  |  |  |  |  | emits fluorescence upon reaction with singlet oxygen
3 |  |  | O=C(O)c1ccccc1-c1c2ccc(=O)cc-2oc2cc(Oc3ccc(O)cc3)ccc12 [ss-1F] | 3.3 × 10^2 |  | high reactivity to hydroxyl radical | 4.8 |  | 8.3 | 1.8 | do not react with hydrogen peroxide | 6.0 | <1.0 | completely free from autoxidation; also recorded: no autoxidation | increase in fluorescence intensity in a concentration-dependent manner | 
4 |  |  | O=C(O)c1ccccc1C1c2cc(Cl)c(O)cc2Oc2cc(O)c(Cl)cc21 [DCFH, 2′,7′-dichlorodihydrofluorescein, reference compound] | 4.8 × 10^3 |  | successfully reacted with hydroxyl radical | 26 |  | 67 | 1.9 × 10^2 |  | 1.5 × 10^2 | 1.6 × 10^3 | high |  | 
